Data from patent US20260176320A1, “MODULATORS OF G-PROTEIN COUPLED RECEPTORS” (priority 2018, published 2026).
Like-named read-outs stand apart in the source and are kept apart here.

Assays:
Type in all cases: cell-based
[1] = biological target: T1, GIP-R (Homo sapiens, UniProt P48546); experiment: HitHunter cAMP assay (GIP-R); details: cAMP; for Emax: read-out: (Emax) GIP-R
T1 sequence (P48546 22-466): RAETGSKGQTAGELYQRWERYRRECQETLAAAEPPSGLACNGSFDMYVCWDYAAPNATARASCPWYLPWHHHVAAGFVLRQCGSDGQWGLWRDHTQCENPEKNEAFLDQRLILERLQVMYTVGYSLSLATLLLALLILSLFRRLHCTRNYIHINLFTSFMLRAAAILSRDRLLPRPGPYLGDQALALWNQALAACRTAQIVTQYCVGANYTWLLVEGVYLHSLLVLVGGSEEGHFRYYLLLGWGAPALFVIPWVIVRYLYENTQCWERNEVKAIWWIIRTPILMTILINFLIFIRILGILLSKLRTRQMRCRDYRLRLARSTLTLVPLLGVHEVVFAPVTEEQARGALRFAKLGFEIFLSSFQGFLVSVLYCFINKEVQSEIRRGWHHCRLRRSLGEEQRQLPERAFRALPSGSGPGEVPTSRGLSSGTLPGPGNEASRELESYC
How it was run: (§1)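 Agonist stimulation lasts 30 min at room temperature on 10,000 cells per well, with phosphodiesterase blocked by 625 μM IBMX. Accumulated cAMP is quantified by competitive antibody luminescence after overnight development.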

[2] = biological target: T2, GLP-1R (Homo sapiens, UniProt P43220); experiment: HitHunter cAMP assay (GLP-1R); details: cAMP; for Emax: read-out: (Emax) GLP-1R
T2 sequence (P43220 24-463): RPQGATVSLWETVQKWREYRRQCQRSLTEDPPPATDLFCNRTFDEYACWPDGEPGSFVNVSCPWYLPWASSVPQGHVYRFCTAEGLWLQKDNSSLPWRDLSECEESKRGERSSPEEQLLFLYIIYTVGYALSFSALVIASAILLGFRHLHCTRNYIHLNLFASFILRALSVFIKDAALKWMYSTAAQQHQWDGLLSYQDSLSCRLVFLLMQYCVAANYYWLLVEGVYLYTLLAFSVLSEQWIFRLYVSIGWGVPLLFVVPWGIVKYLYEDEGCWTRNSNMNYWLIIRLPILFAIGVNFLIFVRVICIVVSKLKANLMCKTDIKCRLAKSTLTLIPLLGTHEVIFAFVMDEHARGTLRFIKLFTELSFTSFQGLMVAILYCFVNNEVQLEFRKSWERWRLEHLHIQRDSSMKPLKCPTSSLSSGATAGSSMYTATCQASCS
How it was run: as §1

[3] = biological target: T2, GLP-1R; experiment: PathHunter β-arrestin assay
How it was run: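 Recruitment of β-arrestin is measured by luminescence after cells, plated overnight, receive serially diluted agonist for 90 min at 37 °C in medium with 0.2% BSA. Detection reagent then develops for 3 h at room temperature, protected from light.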

[4] = Table 3, read-out: EC50 GIP-R/nM
[5] = Table 3A, read-out: EC50 GIP-R/nM
[6] = Table 3, read-out: EC50 GLP-1R/nM
[7] = Table 3A, read-out: EC50 GLP-1R/nM
[8] = PathHunter β-arrestin assay, read-out: β-arrestin activity EC50

Row | SMILES | Emax ([1]; Table 3) | EC50 [1, 4] | Emax ([1]; Table 3A) | EC50 [1, 5] | Emax ([2]; Table 3) | EC50 [2, 6] | Emax ([2]; Table 3A) | EC50 [2, 7] | EC50 [3, 8] | EC50 ([1]; EC50 GIP-R/nM, Table 3) | EC50 ([1]; EC50 GIP-R/nM, Table 3A) | EC50 ([2]; EC50 GLP-1R/nM, Table 3) | EC50 ([2]; EC50 GLP-1R/nM, Table 3A) | EC50 [3]
1 | CC[C@H](C)[C@H](NC(=O)[C@H](CO)NC(=O)[C@H](Cc1ccc(O)cc1)NC(=O)[C@H](CC(=O)O)NC(=O)[C@H](CO)NC(=O)[C@@H](NC(=O)[C@H](Cc1ccccc1)NC(=O)[C@@H](NC(=O)CNC(=O)[C@H](CCC(=O)O)NC(=O)CSCC(=O)NCCn1ccccc1=O)[C@@H](C)O)[C@@H](C)O)C(=O)N[C@@H](Cc1ccc(O)cc1)C(=O)N[C@@H](CC(C)C)C(=O)N[C@@H](CC(=O)O)C(=O)N[C@@H](CCCCN)C(=O)N[C@@H](CCC(N)=O)C(=O)N[C@@H](C)C(=O)N[C@@H](C)C(=O)NC(C)(C)C(=O)N[C@@H](CCC(=O)O)C(=O)N[C@@H](Cc1ccccc1)C(=O)N[C@H](C(=O)N[C@@H](CC(N)=O)C(=O)N[C@@H](Cc1c[nH]c2ccccc12)C(=O)N[C@@H](CC(C)C)C(=O)N[C@@H](CC(C)C)C(=O)N[C@@H](C)C(=O)NCC(=O)NCC(=O)N1CCC[C@H]1C(=O)N[C@@H](CO)C(=O)N[C@@H](CO)C(=O)NCC(=O)N[C@@H](C)C(=O)N1CCC[C@H]1C(=O)N1CCC[C@H]1C(=O)N1CCC[C@H]1C(=O)N[C@@H](CO)C(=O)N[C@@H](CCCCN)C(N)=O)C(C)C [Compound 139] | 79% | 1 to 10 nM | 79% | 1 to 10 nM | 102% | 0.1 to 1 nM | 102% | 0.1 to 1 nM | > 1000 nM |  |  |  |  | 
2 | CC[C@H](C)[C@H](NC(=O)[C@H](CO)NC(=O)[C@H](Cc1ccc(O)cc1)NC(=O)[C@H](CC(=O)O)NC(=O)[C@H](CO)NC(=O)[C@@H](NC(=O)[C@H](Cc1ccccc1)NC(=O)[C@@H](NC(=O)CNC(=O)[C@H](CCC(=O)O)NC(=O)C(C)(C)C(=O)NCCN1C(=O)c2ccccc2C1=O)[C@@H](C)O)[C@@H](C)O)C(=O)N[C@@H](Cc1ccc(O)cc1)C(=O)N[C@@H](CC(C)C)C(=O)N[C@@H](CC(=O)O)C(=O)N[C@@H](CCCCN)C(=O)N[C@@H](CCC(N)=O)C(=O)N[C@@H](C)C(=O)N[C@@H](C)C(=O)NC(C)(C)C(=O)N[C@@H](CCC(=O)O)C(=O)N[C@@H](Cc1ccccc1)C(=O)N[C@H](C(=O)N[C@@H](CC(N)=O)C(=O)N[C@@H](Cc1c[nH]c2ccccc12)C(=O)N[C@@H](CC(C)C)C(=O)N[C@@H](CC(C)C)C(=O)N[C@@H](C)C(=O)NCC(=O)NCC(=O)N1CCC[C@H]1C(=O)N[C@@H](CO)C(=O)N[C@@H](CO)C(=O)NCC(=O)N[C@@H](C)C(=O)N1CCC[C@H]1C(=O)N1CCC[C@H]1C(=O)N1CCC[C@H]1C(=O)N[C@@H](CO)C(=O)N[C@@H](CCCCN)C(N)=O)C(C)C [Compound 140] | 63% |  | 63% |  | 107% |  | 107% |  |  | 1 to 10 nM | 1 to 10 nM | < 0.1 nM | < 0.1 nM | > 1000 nM
3 | CC[C@H](C)[C@H](NC(=O)[C@H](CO)NC(=O)[C@H](Cc1ccc(O)cc1)NC(=O)[C@H](CC(=O)O)NC(=O)[C@H](CO)NC(=O)[C@@H](NC(=O)[C@H](Cc1ccccc1)NC(=O)[C@@H](NC(=O)CNC(=O)[C@H](CCC(=O)O)NC(=O)C(C)(C)C(=O)NCCCCN1C(=O)c2ccccc2C1=O)[C@@H](C)O)[C@@H](C)O)C(=O)N[C@@H](Cc1ccc(O)cc1)C(=O)N[C@@H](CC(C)C)C(=O)N[C@@H](CC(=O)O)C(=O)N[C@@H](CCCCN)C(=O)N[C@@H](CCC(N)=O)C(=O)N[C@@H](C)C(=O)N[C@@H](C)C(=O)NC(C)(C)C(=O)N[C@@H](CCC(=O)O)C(=O)N[C@@H](Cc1ccccc1)C(=O)N[C@H](C(=O)N[C@@H](CC(N)=O)C(=O)N[C@@H](Cc1c[nH]c2ccccc12)C(=O)N[C@@H](CC(C)C)C(=O)N[C@@H](CC(C)C)C(=O)N[C@@H](C)C(=O)NCC(=O)NCC(=O)N1CCC[C@H]1C(=O)N[C@@H](CO)C(=O)N[C@@H](CO)C(=O)NCC(=O)N[C@@H](C)C(=O)N1CCC[C@H]1C(=O)N1CCC[C@H]1C(=O)N1CCC[C@H]1C(=O)N[C@@H](CO)C(=O)N[C@@H](CCCCN)C(N)=O)C(C)C [Compound 141] | 46 to 50% |  | 46 to 50% |  | 98 to 100% |  | 98 to 100% |  |  | 10 to 100 nM | 10 to 100 nM | 1 to 10 nM | 1 to 10 nM | > 1000 nM
4 | CC[C@H](C)[C@H](NC(=O)[C@H](CO)NC(=O)[C@H](Cc1ccc(O)cc1)NC(=O)[C@H](CC(=O)O)NC(=O)[C@H](CO)NC(=O)[C@@H](NC(=O)[C@H](Cc1ccccc1)NC(=O)[C@@H](NC(=O)CNC(=O)[C@H](CCC(=O)O)NC(=O)C(C)(C)C(=O)NC)[C@@H](C)O)[C@@H](C)O)C(=O)N[C@@H](Cc1ccc(O)cc1)C(=O)N[C@@H](CC(C)C)C(=O)N[C@@H](CC(=O)O)C(=O)N[C@@H](CCCCN)C(=O)N[C@@H](CCC(N)=O)C(=O)N[C@@H](C)C(=O)N[C@@H](C)C(=O)NC(C)(C)C(=O)N[C@@H](CCC(=O)O)C(=O)N[C@@H](Cc1ccccc1)C(=O)N[C@H](C(=O)N[C@@H](CC(N)=O)C(=O)N[C@@H](Cc1c[nH]c2ccccc12)C(=O)N[C@@H](CC(C)C)C(=O)N[C@@H](CC(C)C)C(=O)N[C@@H](C)C(=O)NCC(=O)NCC(=O)N1CCC[C@H]1C(=O)N[C@@H](CO)C(=O)N[C@@H](CO)C(=O)NCC(=O)N[C@@H](C)C(=O)N1CCC[C@H]1C(=O)N1CCC[C@H]1C(=O)N1CCC[C@H]1C(=O)N[C@@H](CO)C(=O)N[C@@H](CCCCN)C(N)=O)C(C)C [Compound 142] | 14.2 to 17% | 10 to 100 nM | 14.2 to 17% | 100 to 1000 nM | 101 to 105% | < 0.1 nM | 101 to 105% | < 0.1 nM | 10 to 1000 nM |  |  |  |  | 
5 | CC[C@H](C)[C@H](NC(=O)[C@H](CO)NC(=O)[C@H](Cc1ccc(O)cc1)NC(=O)[C@H](CC(=O)O)NC(=O)[C@H](CO)NC(=O)[C@@H](NC(=O)[C@H](Cc1ccccc1)NC(=O)[C@@H](NC(=O)CNC(=O)[C@H](CCC(=O)O)NC(=O)C(C)(C)C(=O)NCCCN1C(=O)c2ccccc2C1=O)[C@@H](C)O)[C@@H](C)O)C(=O)N[C@@H](Cc1ccc(O)cc1)C(=O)N[C@@H](CC(C)C)C(=O)N[C@@H](CC(=O)O)C(=O)N[C@@H](CCCCN)C(=O)N[C@@H](CCC(N)=O)C(=O)N[C@@H](C)C(=O)N[C@@H](C)C(=O)NC(C)(C)C(=O)N[C@@H](CCC(=O)O)C(=O)N[C@@H](Cc1ccccc1)C(=O)N[C@H](C(=O)N[C@@H](CC(N)=O)C(=O)N[C@@H](Cc1c[nH]c2ccccc12)C(=O)N[C@@H](CC(C)C)C(=O)N[C@@H](CC(C)C)C(=O)N[C@@H](C)C(=O)NCC(=O)NCC(=O)N1CCC[C@H]1C(=O)N[C@@H](CO)C(=O)N[C@@H](CO)C(=O)NCC(=O)N[C@@H](C)C(=O)N1CCC[C@H]1C(=O)N1CCC[C@H]1C(=O)N1CCC[C@H]1C(=O)N[C@@H](CO)C(=O)N[C@@H](CCCCN)C(N)=O)C(C)C [Compound 143] | 99 to 107% | 1 to 10 nM | 99 to 107% | 1 to 10 nM | 99 to 108% | 0.1 to 1 nM | 99 to 108% | 0.1 to 1 nM | > 1000 nM |  |  |  |  | 
